For test [1], the system named is MCF-7 breast cancer cells. In words: Sulforhodamine B (SRB) growth inhibition assay, MCF7. Type of test: cell-based. The following applies: Homo sapiens, mean ± SD. The source says:
(§1) The human cell lines TK10 (human kidney adenocarcinoma), UACC62 (human melanoma) and MCF7 (human breast adenocarcinoma) were obtained from the National Cancer Institute (NCI) as part of a panel widely studied for drug screening and molecular target identification. Melanoma (A375) and human embryonic kidney (HEK293) were acquired from the American Type Culture Collection; ATCC® CRL-1619™ and ATCC® CRL-1573™ respectively. The nontumorigenic human immortalized keratinocyte (HaCaT) cells were a kind donation by the School of Anatomical Sciences, Faculty of Health Sciences, University of the Witwatersrand, South Africa. […]
(§2) The growth inhibitory effects of the compounds were tested in the 3-cell line panel consisting of TK10 (renal), UACC62 (melanoma) and MCF7 (breast) cancer cells by Sulforhodamine B (SRB) assay. In addition, activity was also evaluated against HEK293 cells with the 3-(4,5-dimethylthiazol-2-yl)-2,5-diphenyl tetrazolium bromide (MTT) assay ([Mosmann, 1983]). […] The results were expressed as half maximal inhibitory concentrations (IC50) as described before ([Lewies et al., 2018]). […] After incubation, cell viability was determined using a microplate reader (BioTek®, Vermont, USA) at an excitation wavelength of 560 nm and emission wavelength of 630 nm with DMSO measured as a blank. […] Using the MTT assay data, IC50 values were calculated using GraphPad Prism 8. […]

The next test has as its system TK10 renal cancer cells. Description: Sulforhodamine B (SRB) growth inhibition assay, TK10. The following applies: Homo sapiens, TK-10, mean ± SD. Type of test: cell-based.
From the text: as §1, §2

Turning to `C[C@H]1[C@H](N2CCS(=O)(=O)CC2)O[C@@H]2O[C@@]3(C)CC[C@H]4[C@H](C)CC[C@@H]1[C@@]24OO3` [Artemisone 4, artemisone], the IC50 (in general, the concentration needed to halve the response being measured) in test [1] was 2750 ± 790 nM; with TK10 renal cancer cells, > 100000 nM.
For `CC(C)=CCC/C(C)=C/CC/C(C)=C/CN1CCN([C@@H]2O[C@@H]3O[C@@]4(C)CC[C@H]5[C@H](C)CC[C@@H]([C@H]2C)[C@@]35OO4)CC1` [Farnesylpiperazine-DHA 7, farnesylpiperazine-DHA] the same measures were 1560 ± 510 nM and 3000 ± 670 nM.

For the origin of these results see publication PMC7552967, “Anti-Melanoma Activities of Artemisone and Prenylated Amino-Artemisinins in Combination With Known Anticancer Drugs” (Frontiers in Pharmacology, 2020).
